Experiments:
T11 tumours = experiment: T11 allograft in BALB/c mice, intratumoral treatment; assay type: in vivo; details: day 14 post-inoculation, mean±SEM
Protocol: To investigate the efficacy of the combination of melittin and docetaxel in reducing TNBC growth in vivo, T11 cells were transplanted in BALB/c mice. This allograft model recapitulates highly aggressive, TNBC claudin-low disease in mice with an intact immune system. Three days after the generation of T11 tumours (˜50 mm^3), mice were randomized into four groups (n=12 mice/group) and treated intratumorally with either vehicle, melittin (5 mg/Kg), docetaxel (7 mg/Kg), or a combination of melittin (5 mg/Kg) and docetaxel (7 mg/Kg). Mice were treated every two days from day three, with a total of seven treatments.
The therapeutic effects of melittin and docetaxel were validated in tumour tissues at day 14 post-inoculation of T11 cells by immunohistochemistry and immunofluorescence (FIG. 14A).

[1] = tested on: human TNBC and HER2-enriched breast cancer cells; experiment: Cell viability dose-response assay, TNBC and HER2-enriched panel; assay type: cell-based; details: range over human TNBC and HER2-enriched breast cancer cells
Protocol: (§2) To assess anticancer efficacy and selectivity, both venom from European honeybees collected in Perth, Australia and melittin peptide were evaluated in dose-response assays in a panel of cell lines representative of the intrinsic breast cancer subtypes and in non-transformed cells.
Data are presented as mean±SEM in ng/μL or μM (to two decimal places). Experiments were performed in biological triplicate.

SUM159 cells [2] = experiment: Cleaved caspase-3 immunoblot; assay type: cell-based, human
SUM159 cells [3] = experiment: Annexin V flow cytometry; assay type: cell-based, human; details: IC50 concentration, 60 minutes, mean±SEM
Protocol: To quantify the apoptotic, necrotic or dead cell populations after treatment, flow cytometry for the detection of Annexin V (an early marker of apoptosis) was performed.

[4] = tested on: HDFa, SKBR3 and SUM159 cells; experiment: Cell viability kinetics over one hour; assay type: cell-based, human; details: IC50 concentrations
[5] = tested on: p-HER2, p-EGFR, p-p44/42 MAPK, p-Akt in SKBR3 cells; experiment: Immunoblotting of RTK signalling, SKBR3; assay type: cell-based, human; details: SKBR3, EGF exposed, IC50, from 5 minutes onwards
[6] = tested on: p-EGFR, p-Akt, p-p44/42 MAPK in SUM159 cells; experiment: Immunoblotting of RTK signalling, SUM159; assay type: cell-based, human
[7] = tested on: EGFR and MAPK phosphorylation in MDA-MB-231 cells; experiment: Immunoblotting of RTK signalling, MDA-MB-231; assay type: cell-based, human; details: MDA-MB-231, EGF treatment
Protocol: To characterize the effects on signaling pathways in another TNBC model, immunoblotting was conducted on MDA-MB-231 cells, in which EGF treatment phosphorylated EGFR and induced EGFR expression (FIG. 8C). […] Other growth factor receptors such as VEGFR1 may mediate the activation of these pathways.

[8] = tested on: JAK/STAT pathway in SUM159 cells; experiment: Western blot of JAK/STAT pathway; assay type: cell-based, human; details: 60-minute treatment
T11 cells [9] = experiment: Cell viability, combination with docetaxel; assay type: cell-based, murine; details: T11, 48 hours
Protocol: FIG. 15 presents the results of cell viability assays of T11 breast cancer cells treated with melittin or RGD1-melittin alone and in combination with docetaxel for 48 hours. Representative plots of the combination treatments are presented as mean±SEM.
The murine p53 TNBC cell line T11 was treated with docetaxel in combination with either melittin or RGD1-melittin, and cell viability assays were conducted to determine the combination effect between the treatments (FIG. 15).

T11 cells [10] = experiment: Cell viability, combination with omomyc; assay type: cell-based, murine; details: T11, 24 hours
Protocol: FIG. 16 presents the results of cell viability assays of T11 breast cancer cells treated with melittin or RGD1-melittin alone and in combination with omomyc for 24 hours. Representative plots of the combination treatments are presented as mean±SEM.
The murine p53 TNBC cell line T11 was treated with omomyc in combination with either melittin or RGD1-melittin, and cell viability assays were conducted to determine the combination effect between the treatments (FIG. 16).

COV362 cells = assay type: cell-based; details: COV362, 24 h
Protocol: (§1) The OVCAR3 and COV362 ovarian cancer cell lines were treated with active RGD1-melittin and mutant RGD1-melittin (DEDE-RGD1-melittin). The COV362 cells were cultured in DMEM low glucose medium supplemented with 10% FBS. The OVCAR3 cells were grown in RPMI medium supplemented with 20% FBS. Cells were seeded overnight at a density of 5000 cells/p96-well plate and treated with active RGD1-melittin and mutant RGD1-melittin (RGD1-DEDE melittin), for 24 h at concentrations up to 20 µM. After treatments, cell viability was assessed using the CellTiter-Glo® assay according to the manufacturer's protocol (Promega; NSW, Australia). Luminescence signals were measured using the EnVision Multilabel Plate Reader (PerkinsElmer Inc.; Waltham, MA, USA). IC50s were calculated and transformed 95% confidence intervals provided by GraphPad Prism 6 software analysis (GraphPad Software Inc., San Diego, CA, USA).

OVCAR3 cells = assay type: cell-based; details: OVCAR3, 24 h
Protocol: as §1

SUM159 cells [11] = tested on: SUM159 cells
Protocol: FIG. 5C presents cell viability assays of human dermal fibroblasts (HDFa) and SUM159 treated with melittin (top) and RGD1-melittin (bottom) for 24 hours.
as §2

SMILES	PD-L1 expression in tumours (T11 tumours) [%]	tumour cell proliferation (Ki-67 expression) (T11 tumours) [%]	IC50 [1] [nM]	induction of apoptosis (cleaved caspase-3) (SUM159 cells [2]; 24 hours)	induction of cleaved caspase-3 (apoptosis) (SUM159 cells [2]; IC50 concentration, 18 and 24 hours)	late apoptotic/necrotic cells (SUM159 cells [3]) [%]	cell viability over up to one hour [4]	p-HER2 (Tyr1248), p-EGFR (Tyr1068), p-p44/42 MAPK (Thr202/Tyr204), p-Akt (Ser473 and Thr308) [5]	p-EGFR (Tyr1068) ([6]; SUM159, 10-20 minutes)	p-p44/42 MAPK (Thr202/Tyr204) ([6]; SUM159, 10-20 minutes)	p-Akt (Ser473 and Thr308) ([6]; SUM159, melittin all time points, venom 10-20 minutes)	phosphorylation of EGFR and MAPK [7]	effects on JAK/STAT pathway inhibitors [8]	combination effect with docetaxel on cell viability (T11 cells [9])	combination effect with omomyc on cell viability (T11 cells [10])	IC50 (COV362 cells) [µM]	IC50 (OVCAR3 cells) [µM]	ratio of the IC50s of HDFa/SUM159 (SUM159 cells [11]; 24 hours, mean±SEM)	half-maximal inhibitory concentration (IC50) (SUM159 cells [11]; TNBC SUM159) [ng/µL]
CC(=O)O[C@@]12CO[C@@H]1C[C@H](O)[C@@]1(C)C(=O)[C@H](O)C3=C(C)[C@@H](OC(=O)[C@H](O)[C@@H](NC(=O)OC(C)(C)C)c4ccccc4)C[C@@](O)([C@@H](OC(=O)c4ccccc4)[C@H]21)C3(C)C [docetaxel]	84.3±0.6	21.0±1.3	–	–	–	–	–	–	–	–	–	–	–	–	–	–	–	–	–
CC[C@H](C)[C@H](NC(=O)CN)C(=O)NCC(=O)N[C@@H](C)C(=O)N[C@H](C(=O)N[C@@H](CC(C)C)C(=O)N[C@@H](CCCCN)C(=O)N[C@H](C(=O)N[C@@H](CC(C)C)C(=O)N[C@H](C(=O)N[C@H](C(=O)NCC(=O)N[C@@H](CC(C)C)C(=O)N1CCC[C@H]1C(=O)N[C@@H](C)C(=O)N[C@@H](CC(C)C)C(=O)N[C@H](C(=O)N[C@@H](CO)C(=O)N[C@@H](Cc1c[nH]c2ccccc12)C(=O)N[C@H](C(=O)N[C@@H](CCCCN)C(=O)N[C@@H](CCCNC(=N)N)C(=O)N[C@@H](CCCCN)C(=O)N[C@@H](CCCNC(=N)N)C(=O)N[C@@H](CCC(N)=O)C(=O)N[C@@H](CCC(N)=O)C(N)=O)[C@@H](C)CC)[C@@H](C)CC)[C@@H](C)O)[C@@H](C)O)C(C)C)C(C)C [melittin]	52.9±2.4	31.7±1.3	940 to 1490	confirmed the anticancer activity	higher level of apoptosis than honeybee venom	23.6±5.7	significantly reduced the viability of both breast cancer cell lines compared to the normal cells from 10 minutes onwards	strongly downregulated	strongly down-regulated	upregulated	suppressed	reduced the phosphorylation of EGFR and MAPK	No modulatory effects	beneficial effect when combined with docetaxel	beneficial effect when combined with omomyc	7.81	18.2	1.76±0.04	4.24
